Data on two compounds can be found in ChEMBL document CHEMBL4118173, “Discovery of benzimidazole derivatives as orally active renin inhibitors: Optimization of 3,5-disubstituted piperidine to improve pharmacokinetic profile” (Bioorg Med Chem, 2018).

Data set [1] can be described thus: AUC in cynomolgus monkey at 0.1 mg/kg, iv administered as cassette dose by LC-MS/MS analysis. The format is ADME, organism-based, Macaca fascicularis. To be noted: in vivo.
Data set [2] can be described thus: Clearance in cynomolgus monkey at 0.1 mg/kg, iv or 1 mg/kg, po administered as cassette dose by LC-MS/MS analysis. In kind it is ADME, organism-based, Macaca fascicularis. To be noted: in vivo.
Data set [3] can be described thus: AUC in cynomolgus monkey at 1 mg/kg, po administered as cassette dose by LC-MS/MS analysis. To be noted: in vivo. The format is ADME, organism-based, Macaca fascicularis.
The nature of data set [4]: Cmax in cynomolgus monkey at 0.1 mg/kg, iv or 1 mg/kg, po administered as cassette dose by LC-MS/MS analysis. The following applies: in vivo. The format is ADME, organism-based, Macaca fascicularis.
The nature of data set [5]: Tmax in cynomolgus monkey at 0.1 mg/kg, iv or 1 mg/kg, po administered as cassette dose by LC-MS/MS analysis. In kind it is ADME, organism-based, Macaca fascicularis. To be noted: in vivo.
Data set [6] is described as follows: Oral bioavailability in cynomolgus monkey at 1 mg/kg administered as cassette dose by LC-MS/MS analysis. In kind it is ADME, organism-based, Macaca fascicularis. The following applies: in vivo.
Data set [7] has as its system Cynomolgus monkey. The experiment in a line: In vivo inhibition of plasma renin in po dosed cynomolgus monkey measured at 4 and 24 hrs post dose by radioimmunoassay. In kind it is functional, organism-based. To be noted: Macaca fascicularis.
Data set [8] has as its target T1, Renin (Rattus norvegicus, UniProt P08424).
T1 sequence (P08424 whole entry): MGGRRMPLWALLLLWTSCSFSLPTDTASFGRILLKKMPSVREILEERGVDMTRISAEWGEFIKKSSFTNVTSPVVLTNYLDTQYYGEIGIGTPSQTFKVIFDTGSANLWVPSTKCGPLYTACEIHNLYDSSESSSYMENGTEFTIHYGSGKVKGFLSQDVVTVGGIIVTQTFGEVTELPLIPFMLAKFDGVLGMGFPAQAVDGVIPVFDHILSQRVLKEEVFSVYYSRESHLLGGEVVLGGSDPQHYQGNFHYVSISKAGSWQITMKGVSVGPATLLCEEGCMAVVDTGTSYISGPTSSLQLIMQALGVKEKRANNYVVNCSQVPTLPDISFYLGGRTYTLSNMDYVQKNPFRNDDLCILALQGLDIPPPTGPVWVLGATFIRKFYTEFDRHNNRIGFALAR
Description: Inhibition of renin in rat plasma

In data set [9] the target is T2, Renin (Macaca mulatta, UniProt Q6DLW5).
T2 sequence (Q6DLW5 whole entry): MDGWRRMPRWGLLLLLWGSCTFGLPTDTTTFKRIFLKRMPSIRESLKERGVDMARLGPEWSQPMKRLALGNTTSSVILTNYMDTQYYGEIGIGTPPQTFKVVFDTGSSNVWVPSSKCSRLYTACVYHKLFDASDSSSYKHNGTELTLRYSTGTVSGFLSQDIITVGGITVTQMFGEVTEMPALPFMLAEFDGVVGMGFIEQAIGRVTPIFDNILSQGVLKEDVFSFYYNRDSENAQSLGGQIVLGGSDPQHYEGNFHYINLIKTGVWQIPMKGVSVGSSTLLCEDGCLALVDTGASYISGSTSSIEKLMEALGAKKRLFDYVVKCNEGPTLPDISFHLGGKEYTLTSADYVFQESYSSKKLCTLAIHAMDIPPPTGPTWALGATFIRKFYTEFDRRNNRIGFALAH
Description: Inhibition of renin in monkey plasma

Data set [10] in a line: in vivo. The following applies: rat, iv, 0.1 mg/kg.
Data set [11] can be described thus: in vivo. To be noted: rat, po, 1 mg/kg.
Data set [12] in a line: in vivo. To be noted: rat, iv.
Description: Clearance in rat at 0.1 mg/kg, iv or 1 mg/kg, po administered as cassette dose by LC-MS/MS analysis
Data set [13] in a line: in vivo. The following applies: rat, po, 1 mg/kg. The source holds these as a separate data set.
The nature of data set [14]: physchem. To be noted: 1-octanol/aqueous buffer, pH 7.4.
Description: 1-octanol/aqueous buffer partition coefficient, log D of the compound at pH 7.4 by UV-vis/HPLC method
Data set [15] can be described thus: in vitro. The following applies: PAMPA, pH 7.4. For orientation: In PAMPA a lipid-coated filter parts donor from acceptor wells.
Description: Permeability of the compound at pH 7.4 buffer after 3 hrs by PAMPA
Data set [16] concerns Rattus norvegicus. The experiment in a line: Metabolic stability in rat at 0.1 mg/kg, iv or 1 mg/kg, po administered as cassette dose by LC-MS/MS analysis. In kind it is ADME, organism-based. The following applies: in vivo.

One may read the AUC as concentration integrated over time. One may read the Cmax as the maximum level reached in the sampled fluid or tissue. One may read the Tmax as the time at which the peak concentration occurs. By bioavailability is commonly meant dose-corrected exposure relative to a reference, in per cent. The term IC50 denotes the concentration needed to halve the response being measured. A word on the logD: it is lipophilicity at a set pH, counting ionised and neutral species. The term Papp denotes the rate of passage across a membrane or cell layer, normalised by area and donor concentration. Take `COCCCCn1c(C(=O)N(CC(C)C)[C@@H]2CNC[C@H](C(=O)N3CCOCC3)C2)nc2ccccc21`: the AUC in data set [1] was 128 ng·h/mL; in [3] it was 323 ng·h/mL; in data set [10] it was 68 ng·h/mL; in data set [11], 92.2 ng·h/mL. Also, the clearance in data set [2] was 14.2 mL/min/kg; in data set [12] it was 25.9 mL/min/kg. Further, the Cmax in [4] amounted to 29.1 ng/mL. The time to peak (Tmax) in [5] was determined as 1.67 h. The bioavailability in data set [6] amounted to 25%; in [13], 14%. In addition, the inhibition result in [7] was “Dose-dependent effect”. The IC50 in data set [8] was 310 nM; in [9], 1.5 nM. In data set [14], this compound had a logD of 2.11. The same compound gave a Papp at 3 h in [15] of 34.5 ×10⁻⁶ cm/s.
In the case of `COCCCNc1nc(C(C)(C)C)ncc1C(=O)N(CC(C)C)[C@@H]1CNC[C@H](C(=O)N2CCOCC2)C1`, in data set [16], the Stability entry is on record as “Stable”. Besides, in data set [10], the AUC was 14.1 ng·h/mL. In [12], this compound showed a clearance of 121 mL/min/kg. Moreover, in data set [13], the bioavailability was less than 1%. This compound had a logD in data set [14] of 2.99. In data set [15], this compound returned a Papp at 3 h of 39 ×10⁻⁶ cm/s.
